Laboratory results from US20240229098A1, “BIOLUMINOGENIC ASSAY FOR DRUG-RESISTANCE BACTERIA DETECTION” (priority 2021, published 2024).

Columns and labels:
[1] = system: KPC-3, BlaC, TEM-1, IMP-1, AmpC, OXA-48; experiment: Bioluminescence with panel of recombinant β-lactamases of clinical relevance; format: biochemical
Method: (§1) FIGS. 9A and 9B illustrates bioluminescent studies of D-Bluco and O-Bluco treating with various β-lactamases. 10 μM of Bluco, D-Bluco and O-Bluco incubated with 20 nM TEM-1 for 15 min in PBS at r.t. The bioluminescent signals for each compound was evaluated with or without the addition of TEM-1 by a luminator. […] The relative bioluminescent was calculated by removing background signal in PBS.
Having confirmed the quenching ability of dabcyl to lower D-Bluco bioluminescent background emission, the activity of D-Bluco towards a variety of β-lactamases that are of clinical relevance in addition to TEM-1, including KPC-3, BlaC (Class A), AmpC (Class C), and OXA-48 (Class D) was then assessed. These enzymes were recombinantly expressed and purified. The bioluminescent signal was measured with an IVIS optical imaging system after treating D-Bluco with each enzyme for 2 hours at room temperature.
D-Bluco and O-Bluco were evaluated with various β-lactamase that of clinical relevance (FIG. 9B and 9C), including KPC-3, BlaC, TEM-1 (Class A), IMP-1 (Class B), AmpC (Class C), and OXA-48 (Class D). These enzymes were recombinantly expressed, purified as previously described^25. The bioluminescent signal was measured after incubating O-Bluco or D-Bluco with each enzyme at different concentrations for 2 hr at r.t. […] This compares favorably to previously reported fluorescent cephalosporin probe with a 1000-fold sensitivity improvement.^26
(§2) The caged luciferin probes were incubated with different concentrations of TEM-1 β-lactamase or IMP-1 carbapenemase (0.001-0.1 fmol) in PBS (pH=7.4) for 2 hr at 25° C. Then a mixture of luciferase (200 nM), ATP (2 mM), and MgCl2 (4 mM) was added, and bioluminescent signals were detected with a SpectraMax microplate reader or a luminator.

TEM-1 [2] = biological target: T1, TEM-1 (Escherichia coli, UniProt P62593); format: biochemical; set-up: made in house; conditions: 10 μM probe, TEM-1 20 nM, 15 min, PBS pH 7.4, r.t.
T1 sequence (P62593 24-286 limits assumed): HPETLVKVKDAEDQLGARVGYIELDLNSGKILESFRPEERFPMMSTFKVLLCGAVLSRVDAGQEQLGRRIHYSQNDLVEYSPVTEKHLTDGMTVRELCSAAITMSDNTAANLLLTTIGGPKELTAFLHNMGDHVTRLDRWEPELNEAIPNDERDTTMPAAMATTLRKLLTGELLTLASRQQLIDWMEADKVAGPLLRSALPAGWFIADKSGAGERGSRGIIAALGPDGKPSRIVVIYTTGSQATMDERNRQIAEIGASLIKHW
Method: RLU indicates relative light units.
as §1
The bioluminescence emission from the released D-luciferin was measured. […] Also evaluated was whether there was interference between luciferase and β-lactamases in such dual enzyme reaction system.
The signal to background ratio for D-Bluco, O-Bluco, and Bluco was measured following the addition of the firefly luciferase (fLuc).
as §2

firefly luciferase = biological target: T2, firefly luciferase (Photinus pyralis, UniProt P08659); experiment: Background bioluminescence and oxidation of pro-luciferin probes on repeated addition of firefly luciferase; format: biochemical; conditions: for bioluminescence emission on additional batches of firefly luciferase: repeated firefly luciferase addition, no β-lactamase
T2 construct: purchased Promega E1701
T2 sequence (P08659 whole entry): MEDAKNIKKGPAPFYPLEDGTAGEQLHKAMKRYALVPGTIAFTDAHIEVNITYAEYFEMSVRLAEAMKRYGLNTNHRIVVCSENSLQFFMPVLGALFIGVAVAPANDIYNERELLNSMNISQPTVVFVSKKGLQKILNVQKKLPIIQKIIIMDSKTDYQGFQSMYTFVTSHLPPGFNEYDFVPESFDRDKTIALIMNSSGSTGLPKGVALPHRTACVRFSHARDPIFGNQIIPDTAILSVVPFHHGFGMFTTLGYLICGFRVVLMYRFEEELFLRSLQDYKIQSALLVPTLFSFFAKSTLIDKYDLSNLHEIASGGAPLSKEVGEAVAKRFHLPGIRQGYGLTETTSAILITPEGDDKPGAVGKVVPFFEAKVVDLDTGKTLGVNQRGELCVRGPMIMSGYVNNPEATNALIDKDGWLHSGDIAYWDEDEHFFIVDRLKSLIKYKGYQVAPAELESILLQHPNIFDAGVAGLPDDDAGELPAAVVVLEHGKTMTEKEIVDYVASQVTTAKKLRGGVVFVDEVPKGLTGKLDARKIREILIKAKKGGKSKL
Method: The initial bioluminescent background signal may come from residual D-luciferin present in the sample. High-performance liquid chromatography (HPLC) analysis could not detect any D-luciferin at a concentration below 0.1 μM. However, addition of firefly luciferase can efficiently detect and consume the residual free D-luciferin.
To further confirm the quenching effect of dabcyl in D-Bluco, another control, Am-Bluco, was prepared that is structurally similar to D-Bluco but with dabcyl replaced by a structure lacking the broad absorption between 400 and 530 nm (FIG. 1).

TEM-1 [3] = biological target: T1, TEM-1; experiment: Fluorescence turn-on of caged luciferin probes with recombinant TEM-1 bla; format: biochemical; set-up: made in house
Method: D-Bluco was evaluated as to whether it could be processed by β-lactamase to release luciferin with one of the most prevalent Ambler class A β-lactamases, TEM-1.
Both probes were evaluated to with TEM-1 bla, one of the most abundant β-Lactamases for initial testing. The fluorescent signal of D-Bluco and O-Bluco incubated with 100 nM TEM-1 bla was examined with a microplate reader over a period of 40 minutes.
General information: All chemicals were purchased from commercial sources and used without further purification. […] QuantiLum Recombinant luciferase (catalog number E1701) was purchased from Promega (Madison, WI). Reaction progress was monitored by analytical thin layer chromatography (TLC) with 0.25 mm silica gel 60F plates and visualized with fluorescent indicator (254 nm). Flash column chromatography was conducted using silica gel (SiliaFlash for flash column, 40-63 μm, 60 Å). The ^1H and ^13C NMR spectra were acquired on a Varian 500 MHz or 600 MHz magnetic resonance spectrometer. Data for ^1H NMR spectra are reported as follows: chemical shifts are reported as δ in units of parts per million (ppm) relative to chloroform-d (δ 7.26, s); multiplicities are reported as follows: s (singlet), d (doublet), t (triplet), q (quartet), dd (doublet of doublets), m (multiplet), or br (broadened); coupling constants are reported as a J value in Hertz (Hz); and the number of protons (n) for a given resonance is indicated nH and based on the spectral integration values. High resolution mass spectra were obtained on a Thermo Exactive Orbitrap LC/MS. HPLC was performed on a Dionex HPLC System (Dionex Corporation) equipped with a GP50 gradient pump and an inline diode array UV-Vis detector. A reversed-phase C18 (Phenomenax, 5 μm, 10×250 mm or Dionex, 5 μm, 4.6×250 mm) column was used with a MeCN (B)/H2O (A) gradient mobile phase containing 0.1% trifluoroacetic acid at a flow of 1 or 3 mL/min for the analysis. Fluorescence Spectra and kinetic experiments were collected by a SpectraMax iD3 multimode microplate reader (Molecular Device, San Jose, CA).

IMP-1 = IMP-1 (Serratia marcescens, UniProt P52699); conditions: D-luciferin 10 μM, IMP-1 10, 20, 50, 100 nM, 15 min, PBS pH 7.4
Sequence of IMP-1 (P52699 19-246): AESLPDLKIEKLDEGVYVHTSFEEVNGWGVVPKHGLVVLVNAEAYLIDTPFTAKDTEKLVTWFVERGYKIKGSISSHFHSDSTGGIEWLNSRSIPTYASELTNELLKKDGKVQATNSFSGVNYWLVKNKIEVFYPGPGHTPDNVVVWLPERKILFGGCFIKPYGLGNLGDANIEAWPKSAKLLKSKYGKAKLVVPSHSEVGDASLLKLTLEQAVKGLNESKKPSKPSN
Method: (§3) Bioluminescent signal was measured after the addition of bioluminescent reagent. Statistical significance was calculated using the unpaired two-tailed Student's t test (** p<0.01, **** p<0.0001).
(§4) The study was duplicated at room temperature with PBS (pH=7.4). Statistical significance was calculated using the unpaired two-tailed Student's t test (ns: not significant). The study was duplicated at room temperature with PBS (pH=7.4) as the buffer. Data were collected on a SpectraMax iD3 multimode microplate reader.

TEM-1 [4] = biological target: T1, TEM-1; conditions: D-luciferin 10 μM, TEM-1 10, 20, 50, 100 nM, 15 min, PBS pH 7.4
Method: as §3, §4

O=C(Cc1ccccc1)NC1C(=O)N2C(C(=O)O)=C(COc3ccc4nc(C5=N[C@H](C(=O)O)CS5)sc4c3)C[S+]([O-])C12 (stereo partly shown) [Bluco, reference compound]
bioluminescence triggered by β-lactamases TEM-1, KPC-3, BlaC, AmpC, OXA-48 ([1]; each enzyme 2 hours at room temperature, IVIS imaging): significant bioluminescence
fold increase in bioluminescence emission upon TEM-1 treatment (turn-on ratio, signal with TEM-1 over signal without TEM-1) (TEM-1 [2]): 41.3 fold
oxidation of probe incubated with firefly luciferase (mass spectrometry) (firefly luciferase): oxidized
bioluminescence emission on additional batches of firefly luciferase (firefly luciferase): still bioluminescence emission

O=C(Cc1ccccc1)NC1C(=O)N2C(C(=O)O)=C(COc3ccc(COc4ccc5nc(C6=N[C@@H](C(=O)O)CS6)sc5c4)cc3)C3(CC3)SC12 (stereo partly drawn) [O-Bluco, 4-((4-(((2-((S)-4-carboxy-4,5-dihydrothiazol-2-yl)benzo[d]thiazol-6-yl)oxy)methyl)phenoxy)methyl)-7-oxo-8-(2-phenylacetamido)-2-thia-6-azaspiro[bicyclo[4.2.0]octane-3,1′-cyclopropan]-4-ene-5-carboxylic acid]
sensitivity improvement over previously reported fluorescent cephalosporin probes [1]: 1000 fold
detection limits for the panel of enzymes ([1]; KPC-3, BlaC, TEM-1, IMP-1, AmpC, OXA-48, 2 hr at r.t.): within the femtomole range
fold increase in bioluminescence emission upon TEM-1 treatment (turn-on ratio, signal with TEM-1 over signal without TEM-1) (TEM-1 [2]): 100.5 fold
fold increase in fluorescence emission in the presence of TEM-1 (TEM-1 [3]; 1 μM probe, TEM-1 100 nM, 40 min, PBS pH 7.4, r.t., excitation 330 nm, emission 530 nm): 32.7 fold
course of fluorescence signal with TEM-1 bla (TEM-1 [3]; TEM-1 bla 100 nM, monitored over 40 minutes): gradual increase of signal

O=C(O)[C@H]1CSC(c2nc3ccc(O)cc3s2)=N1 [D-luciferin]
difference in bioluminescent signal of D-luciferin with or without IMP-1 (IMP-1): No significant differences
difference in bioluminescent signal of D-luciferin with or without TEM-1 (TEM-1 [4]): No significant differences

O=C(CCCCCNC(=O)c1ccc(NC(=O)c2ccccc2)cc1)NC1C(=O)N2C(C(=O)O)=C(COc3ccc4nc(C5=NC(C(=O)O)CS5)sc4c3)C[S+]([O-])C12 (stereo not shown) [Am-Bluco, 7-(6-(4-benzamidobenzamido)hexanamido)-3-(((2-(4-carboxy-4,5-dihydrothiazol-2-yl)benzo[d]thiazol-6-yl)oxy)methyl)-8-oxo-5-thia-1-azabicyclo[4.2.0]oct-2-ene-2-carboxylic acid 5-oxide]
oxidation of probe incubated with firefly luciferase (mass spectrometry) (firefly luciferase): oxidized
bioluminescence emission on additional batches of firefly luciferase (firefly luciferase): produced bioluminescence emission upon each addition of firefly luciferase
